“And” between values parts separate entries of the source, which are not always exact repeats. Equal entries are not always repeated.
Key:
HMGCR (TM1-8)-GFP = target: T1, HMGCR (TM1-8)-GFP (Cricetulus griseus, UniProt P00347); assay: HMGCR (TM1-8)-GFP fluorescent assay (high-content imaging) in CHG cells; details: for Mean (HMGCR (TM1-8)-GFP signal relative to 0 μM = 100): Figure 4 source data
T1 sequence (P00347 1-346): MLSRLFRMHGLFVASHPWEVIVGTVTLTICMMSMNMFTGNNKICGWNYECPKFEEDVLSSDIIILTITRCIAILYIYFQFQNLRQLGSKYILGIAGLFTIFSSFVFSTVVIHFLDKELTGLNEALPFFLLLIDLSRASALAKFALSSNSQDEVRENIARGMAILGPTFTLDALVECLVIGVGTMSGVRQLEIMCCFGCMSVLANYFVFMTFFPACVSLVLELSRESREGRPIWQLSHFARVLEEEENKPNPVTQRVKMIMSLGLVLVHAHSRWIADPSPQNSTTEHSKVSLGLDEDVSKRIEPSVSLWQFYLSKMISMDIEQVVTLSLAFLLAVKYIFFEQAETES
Description: We thus generated a cell line stably expressing the transmembrane domain of HMGCR fused with green fluorescent protein (GFP) as a reporter (HMGCR (TM1-8)-GFP) (Fig. 2a).
CHO-7 cells were transfected with pCMV-HMGCR (TM1-8)-GFP using FuGENE HD. Twenty-four hours, cells were switched to medium B supplemented with 5% FBS and selected in the presence of 1 mg ml^−1 G418 for 2 weeks. Surviving colonies were isolated and confirmed for GFP expression by immunoblotting and immunofluorescence. The resulting CHO-7/HMGCR (TM1-8)-GFP stable cell line (CHG) was maintained in medium B supplemented with 5% FBS and 200 μg ml^−1 G418.
CHG cells were treated as described in figure legends. Briefly, cells were seeded at day 0 in 96-well black plate (3904, Corning) at a density of 1.5 × 10^4 cells per well, in medium B containing with 5% LPDS. Day 1, corresponding compounds were added as figure legends described in medium B with 5% LPDS, 1 μM lovastatin, 50 μM sodium mevalonate for 16 h. Then cells were fixed with 4% paraformaldehyde for 20 min, washed with PBS for three times, and stained with 2 μg ml^−1 Hoechst 33342.
The fluorescent images (GFP and Hoechst channel) were captured using an Operatta High-Content Imaging System (PerkinElmer) with a ×20 objective. The cytoplasmic GFP fluorescence was measured with the Harmony Software (PerkinElmer). Five random selected filed per well were captured, and about 3000 cells were used to determine the mean cytoplasmic GFP fluorescent intensity per cell after subtracting background GFP intensity. The average GFP intensity of DMSO-treated cells was defined as 100.

Hmgcr mRNA [1] = assay: RT-qPCR of Hmgcr mRNA in CHO-7 cells; format: cell-based, Chinese hamster; details: DMSO = 1; for HMGCR mRNA level, mean: 16 h
Description: Cells were treated as described in corresponding figure legends, then total RNA was extracted from cells or mouse livers using TRI Reagent (T9424, Sigma-Aldrich). Equal amounts of RNA from cells or mice receiving the same treatment were pooled were used for cDNA synthesis with oligo dT and reverse transcriptase MLV (Promega). Gene expression was analyzed by quantitative real-time PCR on a Stratagene Mx30005PTM Q-PCR Systems. The primers used were listed in Supplementary Tables 2–4.

Hmgcr mRNA [2] = assay: RT-qPCR of hepatic Hmgcr mRNA of gavaged mice; format: in vivo; details: C57BL/6J mice, 60 mg/kg/day gavage once daily 7 days
Description: Cells were treated as described in corresponding figure legends, then total RNA was extracted from cells or mouse livers using TRI Reagent ([…], Sigma-Aldrich). Equal amounts of RNA from cells or mice receiving the same treatment were pooled were used for cDNA synthesis with oligo dT and reverse transcriptase MLV (Promega). Gene expression was analyzed by quantitative real-time PCR on a Stratagene […] Systems. The primers used were listed in Supplementary Tables 2-4. Male C57BL/6 mice (8-week-old) were obtained from Shanghai Laboratory Animal Company (SLAC) (Shanghai, China). Male Ldlr^-/- mice (8-week-old) were obtained from Nanjing Biomedical Research Institute of Nanjing University (Nanjing, China). […] Mice were maintained in a pathogen-free environment and kept on a 12-h light/dark schedule. Mice were gavaged as described in figure legends with saline containing 0.5% methyl cellulose and 0.5% Tween-80. All mice were used in accordance with the guidelines approved by the Institutional Animal Care and Use Committee of Wuhan University.

## C=CCC(O)(CC=C)CCCC(C)C1CCC2C3C(O)C=C4C(C)(C)C(O)CCC4(C)C3CCC12C (stereo not shown) [Cmpd 81]
HMGCR (TM1-8)-GFP; compound 0.156 μM
  Mean (HMGCR (TM1-8)-GFP signal relative to 0 μM = 100): 80.6979
HMGCR (TM1-8)-GFP; compound 0.313 μM
  Mean (HMGCR (TM1-8)-GFP signal relative to 0 μM = 100): 58.3802
HMGCR (TM1-8)-GFP; compound 0.625 μM
  Mean (HMGCR (TM1-8)-GFP signal relative to 0 μM = 100): 35.2515
HMGCR (TM1-8)-GFP; compound 1.25 μM
  Mean (HMGCR (TM1-8)-GFP signal relative to 0 μM = 100): 17.0524
HMGCR (TM1-8)-GFP; compound 2.5 μM
  Mean (HMGCR (TM1-8)-GFP signal relative to 0 μM = 100): 14.0516
HMGCR (TM1-8)-GFP; compound 5 μM
  Mean (HMGCR (TM1-8)-GFP signal relative to 0 μM = 100): 2.6212
HMGCR (TM1-8)-GFP; compound 10 μM
  Mean (HMGCR (TM1-8)-GFP signal relative to 0 μM = 100): 2.9162
HMGCR (TM1-8)-GFP; more potent than 24,25-DHL
  potency (EC50) relative to 24,25-DHL: ~4 fold
HMGCR (TM1-8)-GFP; more potent than cholesterol
  potency (EC50) relative to cholesterol: approximately 74 fold

## CC[C@H](C)C(=O)O[C@H]1C[C@@H](C)C=C2C=C[C@H](C)[C@H](CC[C@@H]3C[C@@H](O)CC(=O)O3)[C@H]21 [Lovastatin, lovastatin]
Hmgcr mRNA [1]; CHO-7, lovastatin 0.001 uM
  HMGCR mRNA level, mean: 1.196
Hmgcr mRNA [1]; CHO-7, lovastatin 0.003 uM
  HMGCR mRNA level, mean: 1.51
Hmgcr mRNA [1]; CHO-7, lovastatin 0.01 uM
  HMGCR mRNA level, mean: 1.897
Hmgcr mRNA [1]; CHO-7, lovastatin 0.03 uM
  HMGCR mRNA level, mean: 2.523
Hmgcr mRNA [1]; CHO-7, lovastatin 0.1 uM
  HMGCR mRNA level, mean: 2.959
Hmgcr mRNA [1]; CHO-7, lovastatin 0.3 uM
  HMGCR mRNA level, mean: 3.447
Hmgcr mRNA [1]; CHO-7, lovastatin 1 uM
  HMGCR mRNA level, mean: 3.688
Hmgcr mRNA [1]; CHO-7, lovastatin 3 uM
  HMGCR mRNA level, mean: 3.602
Hmgcr mRNA [1]; CHO-7, lovastatin 10 uM
  HMGCR mRNA level, mean: 3.663
Hmgcr mRNA [1]; CHO-7 cells, statin 16 h (lovastatin up to 10 μM)
  increase of Hmgcr mRNA abundance: 3.6 fold
Hmgcr mRNA [2]; vehicle = 1
  hepatic Hmgcr mRNA level, mean: 2.5 ± 0.2 fold and 2.537 fold
  hepatic Hmgcr mRNA level, single values: 2.5 and 2.78 and 2.33
Hmgcr mRNA [2]; vehicle = 1, listed as lovastatin
  hepatic Hmgcr mRNA level, mean: 2.5 fold
